This note sets out measurements from patent US7183415B2, “Quinoline compound” (Takeda Pharmaceutical Company Limited, priority 2001, dated 2007).

Broadly, the melting point is the temperature of the solid-liquid transition. The compound `Cc1cc2cc(CN3CCCC3)cnc2cc1NC(=O)c1ccc(-c2ccc(Cl)cc2)cc1` [Example 39, 4′-chloro-N-[6-methyl-3-(1-pyrrolidinylmethyl)-7-quinolinyl][1,1′-biphenyl]-4-carboxamide] returned a melting point of 214 to 217 °C.
With `COc1ccc(-c2ccc(C(=O)Nc3ccc4cc(CN5CCCCC5)cnc4c3C)c(F)c2)cc1` [Example 171, 3-fluoro-4′-methoxy-N-[8-methyl-3-(1-piperidinylmethyl)-7-quinolinyl][1,1′-biphenyl]-4-carboxamide] the figure was 191 to 192 °C; with `CCN(CC)C(=O)CCCC1CCN(Cc2cnc3c(C)c(NC(=O)c4ccc(-c5ccc(F)cc5)cc4)ccc3c2)CC1` [Example 210, N-[3-({4-[4-(diethylamino)-4-oxobutyl]-1-piperidinyl}methyl)-8-methyl-7-quinolinyl]-4′-fluoro[1,1′-biphenyl]-4-carboxamide], 145 to 146 °C; with `CCNC(=O)CC1CCN(Cc2cnc3cc(NC(=O)c4ccc(-c5ccc(F)cc5)cc4)c(C)cc3c2)CC1` [Example 267, N-[3-({4-[2-(ethylamino)-2-oxoethyl]-1-piperidinyl}methyl)-6-methyl-7-quinolinyl]-4′-fluoro[1,1′-biphenyl]-4-carboxamide], 251 °C.
With `CC(=O)NC1CCN(Cc2cnc3cc(NC(=O)c4ccc(-c5ccc(Cl)cc5)cc4)ccc3c2)C1` (stereo not drawn) [Example 92, N-(3-{[3-(acetylamino)-1-pyrrolidinyl]methyl}-7-quinolinyl)-4′-chloro-[1,1′-biphenyl]-4-carboxamide] the figure was over 285 °C; with `O=C(Nc1ccc2cc(CN3CCCC3)cnc2c1)c1ccc(-c2ccc(Cl)cc2)nc1` [Example 11, 6-(4-chlorophenyl)-N-[3-(1-pyrrolidinylmethyl)-7-quinolinyl]nicotinamide], 223 to 225 °C.
With `COc1ccc(-c2ccc(C(=O)Nc3ccc4cc(CN5CCCC5)cnc4c3C)cc2)cc1` [Example 18, 4′-methoxy-N-[8-methyl-3-(1-pyrrolidinylmethyl)-7-quinolinyl][1,1′-biphenyl]-4-carboxamide] the figure was 210 to 213 °C; with `COc1ccc(-c2ccc(C(=O)Nc3cc4ncc(CN5CCCCCC5)cc4cc3C)c(F)c2)cc1` [Example 245, N-[3-(1-azepanylmethyl)-6-methyl-7-quinolinyl]-3-fluoro-4′-methoxy[1,1′-biphenyl]-4-carboxamide], 168 °C; with `Cc1cc2cc(CN3CCCC3)cnc2cc1NC(=O)c1ccc(-c2ccc(F)cc2)cc1F` [Example 228, 3,4′-difluoro-N-[6-methyl-3-(1-pyrrolidinylmethyl)-7-quinolinyl][1,1′-biphenyl]-4-carboxamide], 174 to 177 °C.
In the case of `O=C(Nc1ccc2cc(CN3CCC(CO)CC3)cnc2c1)c1ccc(-c2ccc(F)cc2)cc1` [Example 45, 4′-fluoro-N-(3-{[4-(hydroxymethyl)-1-piperidinyl]methyl}-7-quinolinyl)[1,1′-biphenyl]-4-carboxamide], the melting point lay within 191 to 195 °C.
With `Cc1c(NC(=O)c2ccc(-c3ccc(F)c(F)c3)cc2)ccc2cc(CN3CCCC3)cnc12` [Example 102, 3′,4′-difluoro-N-[8-methyl-3-(1-pyrrolidinylmethyl)-7-quinolinyl][1,1′-biphenyl]-4-carboxamide] the figure was 199 to 201 °C.
With `O=C(Nc1cc2ncc(CN3CCCC3)cc2cc1F)c1ccc(-c2ccc(Cl)cc2)cc1` [Example 51, 4′-chloro-N-[6-fluoro-3-(1-pyrrolidinylmethyl)-7-quinolinyl][1,1′-biphenyl]-4-carboxamide] the figure was 218 to 220 °C; with `Cc1ccc(-c2ccc(C(=O)Nc3ccc4cc(CN5CCCC5)cnc4c3C)cc2F)cc1` [Example 155, 2-fluoro-4′-methyl-N-[8-methyl-3-(1-pyrrolidinylmethyl)-7-quinolinyl][1,1′-biphenyl]-4-carboxamide], 193 to 194 °C; with `Cc1c(NC(=O)c2ccc(-c3ccc(F)cc3)cc2)ccc2cc(CN3CCCCCC3)cnc12` [Example 180, N-[3-(1-azepanylmethyl)-8-methyl-7-quinolinyl]-4′-fluoro[1,1′-biphenyl]-4-carboxamide], 166 to 168 °C.
The figure for `CCN(CC)C(=O)CCCC1CCN(Cc2cnc3cc(NC(=O)c4ccc(-c5ccc(F)cc5)cc4)c(C)cc3c2)CC1` [Example 260, N-[3-({4-[4-(diethylamino)-4-oxobutyl]-1-piperidinyl}methyl)-6-methyl-7-quinolinyl]-4′-fluoro[1,1′-biphenyl]-4-carboxamide] is 181 °C; for `CCN(CC)C(=O)CCC1CCN(Cc2cnc3cc(NC(=O)c4ccc(-c5ccc(F)cc5)cc4)c(C)cc3c2)CC1` [Example 257, N-[3-({4-[3-(diethylamino)-3-oxopropyl]-1-piperidinyl}methyl)-6-methyl-7-quinolinyl]-4′-fluoro[1,1′-biphenyl]-4-carboxamide] it is 150 to 154 °C; for `Cc1c(NC(=O)c2ccc(-c3ccc4c(c3)OCO4)cc2F)ccc2cc(CN3CCCC3)cnc12` (hydrate or solvate) [Example 141, 4-(1,3-benzodioxol-5-yl)-2-fluoro-N-[8-methyl-3-(1-pyrrolidinylmethyl)-7-quinolinyl]benzamide] it is 181 to 182 °C.
Turning to `Cc1c(NC(=O)c2ccc(-c3ccccc3F)c(F)c2)ccc2cc(CN3CCCC3)cnc12` [Example 156, 2,2′-difluoro-N-[8-methyl-3-(1-pyrrolidinylmethyl)-7-quinolinyl][1,1′-biphenyl]-4-carboxamide], the melting point lay in the range of 139 to 140 °C.
The figure for `O=C(Nc1ccc2cc(CN3CCCC3)cnc2c1)c1ccc(-c2ccc(Cl)cc2)cc1` [Example 6, 4′-chloro-N-[3-(1-pyrrolidinylmethyl)-7-quinolinyl][1,1′-biphenyl]-4-carboxamide] is 217 to 220 °C; for `Cc1cc2cc(CN3CCCCCC3)cnc2cc1NC(=O)c1ccc(-c2ccc(F)cc2)cc1F` [Example 244, N-[3-(1-azepanylmethyl)-6-methyl-7-quinolinyl]-3,4′-difluoro[1,1′-biphenyl]-4-carboxamide] it is 170 °C; for `Cc1c(NC(=O)c2ccc(-c3ccc(F)cc3)cc2)ccc2cc(CN(C(C)C)C(C)C)cnc12` [Example 194, N-{3-[(diisopropylamino)methyl]-8-methyl-7-quinolinyl}-4′-fluoro[1,1′-biphenyl]-4-carboxamide] it is 179 to 180 °C.
For the compound `O=C(Nc1cc2ncc(CN3CCCC3)cc2cc1Cl)c1ccc(-c2ccc(Cl)cc2)cc1` [Example 25, 4′-chloro-N-[6-chloro-3-(1-pyrrolidinylmethyl)-7-quinolinyl][1,1′-biphenyl]-4-carboxamide], the melting point was 188 °C (dec.).
The figure for `Cc1c(NC(=O)c2ccc(-c3ccccc3)c(F)c2)ccc2cc(CN3CCCC3)cnc12` [Example 151, 2-fluoro-N-[8-methyl-3-(1-pyrrolidinylmethyl)-7-quinolinyl][1,1′-biphenyl]-4-carboxamide] is 156 to 158 °C; for `Cc1cc2cc(CN3CCC(CCCC(=O)N4CCCCC4)CC3)cnc2cc1NC(=O)c1ccc(-c2ccc(F)cc2)cc1` [Example 259, 4′-fluoro-N-[6-methyl-3-({4-[4-oxo-4-(1-piperidinyl)butyl]-1-piperidinyl}methyl)-7-quinolinyl][1,1′-biphenyl]-4-carboxamide] it is 179 °C.
The figure for `COc1ccc(-c2ccc(C(=O)Nc3ccc4cc(CN5CCCCCC5)cnc4c3C)cc2)cc1` [Example 179, N-[3-(1-azepanylmethyl)-8-methyl-7-quinolinyl]-4′-methoxy[1,1′-biphenyl]-4-carboxamide] is 165 to 167 °C; for `Cc1c(NC(=O)c2ccc(-c3ccc4c(c3)OCCO4)cc2)ccc2cc(CN3CCCC3)cnc12` (hydrate or solvate) [Example 115, 4-(2,3-dihydro-1,4-benzodioxin-6-yl)-N-[8-methyl-3-(1-pyrrolidinylmethyl)-7-quinolinyl]benzamide] it is 187 to 188 °C; for `COc1ccc(C2CCN(C(=O)Nc3ccc4cc(CN5CCCC5)cnc4c3)CC2)cc1` [Example 13, 4-(4-methoxyphenyl)-N-[3-(1-pyrrolidinylmethyl)-7-quinolinyl]-1-piperidine carboxamide] it is 241 to 243 °C.
`CSc1ccc(-c2ccc(C(=O)Nc3ccc4cc(CN5CCCC5)cnc4c3C)c(F)c2)cc1` [Example 144, 3-fluoro-N-[8-methyl-3-(1-pyrrolidinylmethyl)-7-quinolinyl]-4′-(methylsulfanyl)[1,1′-biphenyl]-4-carboxamide] gave a melting point of 189 to 190 °C.
The figure for `COc1ccc(-c2ccc(C(=O)Nc3cc4ncc(CN5CCCC5)cc4cc3F)cc2)cc1` [Example 53, N-[6-fluoro-3-(1-pyrrolidinylmethyl)-7-quinolinyl]-4′-methoxy[1,1′-biphenyl]-4-carboxamide] is 184 to 186 °C.
The figure for `CSc1ccc(-c2ccc(C(=O)Nc3cc4ncc(CN5CCCC5)cc4cc3C)cc2)cc1` [Example 219, N-[6-methyl-3-(1-pyrrolidinylmethyl)-7-quinolinyl]-4′-(methylthio)-[1,1′-biphenyl]-4-carboxamide] is 198 °C; for `O=C(Nc1ccc2cc(CN3CCCC3)cnc2c1)c1ccc(-c2ccccc2)nc1` [Example 7, 6-phenyl-N-[3-(1-pyrrolidinylmethyl)-7-quinolinyl]nicotinamide] it is 208 to 210 °C.
The figure for `Cc1cc2cc(CN3CCCC3)cnc2cc1NC(=O)c1ccc(-c2ccccc2)cc1F` [Example 226, 3-fluoro-N-[6-methyl-3-(1-pyrrolidinylmethyl)-7-quinolinyl][1,1′-biphenyl]-4-carboxamide] is 180 to 183 °C; for `Cc1c(NC(=O)c2ccc(-c3ccc(OC(F)(F)F)cc3)cc2F)ccc2cc(CN3CCCC3)cnc12` [Example 136, 3-fluoro-N-[8-methyl-3-(1-pyrrolidinylmethyl)-7-quinolinyl]-4′-(trifluoromethoxy)[1,1′-biphenyl]-4-carboxamide] it is 175 to 178 °C.
